Five compounds from ChEMBL document CHEMBL5512689, “Discovery of Clinical Candidate PF-06648671: A Potent γ-Secretase Modulator for the Treatment of Alzheimer's Disease” (J Med Chem, 2024) can be followed below.

Converted amounts (≈) assume the structure as drawn.

Data set [1] can be described thus: Drug penetration in rat assessed as Unbound brain-to-plasma concentration ratio. The class given is ADME, cell-free. Conditions: read-out: K(p,uu,brain).
Data set [2] is described as follows: Lipophilicity, log D of the compound. In kind it is physicochemical. Particulars: octanol/water.
Data set [3] is described as follows: Lipophilicity, log D of the compound by shake flask method. In kind it is physicochemical. Conditions: octanol/water.
Data set [4] is described as follows: Kinetic solubility of compound at pH 6.5. Conditions: buffer, read-out: Kinetic_solubility. The class given is physicochemical.
Data set [5] is described as follows: Apparent permeability across apical to basolateral side in dog RRCK cells. The class given is ADME, cell-based, Canis lupus familiaris, MDCKII-LE. Conditions: MDCK.
Data set [6] can be described thus: Volume of distribution at steady state in rat at 1 mg/kg, iv. In kind it is ADME, organism-based. Conditions: in vivo, read-out: Vdss.
Data set [7] is described as follows: Volume of distribution at steady state in dog at 1 mg/kg, iv. In kind it is ADME, organism-based, Canis lupus familiaris. Conditions: in vivo, read-out: Vdss.
The nature of data set [8]: Volume of distribution at steady state in human at 1 mg/kg, iv. Particulars: in vivo, read-out: Vdss. In kind it is ADME, organism-based.
A short description of data set [9]: Oral bioavailability in rat at 5 mg/kg. In kind it is ADME, organism-based. Conditions: in vivo.
The nature of data set [10]: Oral bioavailability in dog at 5 mg/kg. The class given is ADME, organism-based, Canis lupus familiaris. Particulars: in vivo.
The nature of data set [11]: Oral bioavailability in human at 5 mg/kg. The class given is ADME, organism-based. Particulars: in vivo.
Data set [12] can be described thus: Ratio of drug concentration in brain to plasma in rat at 10 mg/kg, po. The class given is ADME, organism-based. Particulars: read-out: BPR.
Data set [13] in a line: Drug penetration in human assessed as Unbound brain-to-plasma concentration ratio. Conditions: read-out: K(p,uu,brain). The class given is ADME, cell-free.
Data set [14] in a line: Drug penetration in Non human primate assessed as unbound brain-to-plasma concentration ratio. The class given is ADME, cell-free. Particulars: primates, read-out: K(p,uu,brain).

Regarding `Cc1cn(-c2ccc3n(c2=O)CCN([C@@H](C)[C@@H]2CC[C@H](c4cc(F)c(C(F)(F)F)c(F)c4)O2)C3=O)cn1`, in [1], the Kp uu was 0.08.

With `Cc1cn(-c2ccc3n(c2=O)CCN([C@@H](C)[C@@H]2CC[C@H](c4ccc(C(F)(F)F)c(F)c4F)O2)C3=O)cn1`, the Kp uu in data set [1] is 0.5.

As for `Cc1cn(-c2ccc3n(c2=O)CCN([C@@H](C)[C@@H]2CC[C@H](c4cc(F)c(Cl)cc4C(F)(F)F)O2)C3=O)cn1`, the Kp uu was found to be 0.7 in [1] and 1 in [13]. Besides, the logD (commonly lipophilicity at a set pH, counting ionised and neutral species) in data set [2] was 5; in data set [3], 4.2. Moreover, in [4], the solubility kinetic is 44.8 µM (≈ 24.1 µg/mL). The Papp A→B – broadly, how fast a substance crosses the layer from the apical side – in data set [5] is 5.8 ×10⁻⁶ cm/s. The figures for the Vd in [6], in data set [7] and in [8] were 0.8 L/kg, 0.7 L/kg and 1.3 L/kg, respectively. The bioavailability (in general, dose-corrected exposure relative to a reference, in per cent) in [9] is 67%; in data set [10], 88%; in data set [11], 60%. Moreover, the Kp in data set [12] amounted to 1.5.

On to `Cc1cn(-c2ccc3n(c2=O)CCN([C@@H](C)[C@@H]2CC[C@H](c4ccc(C(F)(F)F)cc4)O2)C3=O)cn1`, for which the Kp uu in data set [1] was 0.5.

With `Cc1cn(-c2ccc3n(c2=O)CCN([C@@H](C)[C@@H]2CC[C@H](c4ccc(Cl)cc4C(F)(F)F)O2)C3=O)cn1`, the Kp uu in data set [1] stood at 0.5; in [14], 1.
